Measured values: PubChem BioAssay AID276 (DTP/NCI, 2004)
Several values for one entry are separate records, joined by “and”; a condition that tells them apart may be missing. Equal values may be shown once. Toxic doses and inconclusive results are not listed. How the source made its calls: active means survival T/C of 150% or more; inactive means T/C below 125% in these data.

System: B6C3F1 mice, Lewis lung carcinoma iv, survival T/C
Assay: NCI In Vivo Anticancer Drug Screen. Data for tumor model Lewis Lung Carcinoma (intravenous) in B6C3F1 mice
Conditions: endpoint: median survival time, schedule: Q01DX009 (ip), higher = longer survival
Procedure, shortened: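 Read-out is survival, expressed as the treated-group measurement over the vehicle control-group measurement. Animals bore a transplantable tumor and were given compound.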

[1] = dose: 50.0 mg/kg/injection, vehicle: saline
[2] = dose: 100.0 mg/kg/injection, vehicle: saline
[3] = dose: 25.0 mg/kg/injection, vehicle: saline
[4] = dose: 2.0 mg/kg/injection, vehicle: saline
[5] = dose: 4.0 mg/kg/injection, vehicle: saline
[6] = dose: 25.0 mg/kg/injection, vehicle: water
[7] = dose: 50.0 mg/kg/injection, vehicle: water
[8] = dose: 12.5 mg/kg/injection, vehicle: saline with Tween-80
[9] = dose: 25.0 mg/kg/injection, vehicle: saline with Tween-80
[10] = dose: 50.0 mg/kg/injection, vehicle: saline with Tween-80
[11] = dose: 200.0 mg/kg/injection, vehicle: saline
[12] = dose: 6.25 mg/kg/injection, vehicle: saline
[13] = dose: 12.5 mg/kg/injection, vehicle: saline

Measured: T/C

O=CCC(O)C(O)C(O)CO (stereo not given)
inactive: dose: 300.0 mg/kg/injection, vehicle: suspension in saline 102 % of control | dose: 600.0 mg/kg/injection, vehicle: suspension in saline 108 % of control | dose: 1200.0 mg/kg/injection, vehicle: suspension in saline 114 % of control | dose: 1800.0 mg/kg/injection, vehicle: suspension in saline 117 % of control | dose: 2400.0 mg/kg/injection, vehicle: suspension in saline 106 % of control

O=C1C=C[C@H](O)[C@@]2(CO)O[C@@H]12
inactive: dose: 0.31 mg/kg/injection, vehicle: saline with Tween-80 101 % of control | dose: 0.62 mg/kg/injection, vehicle: saline with Tween-80 101 % of control | dose: 1.25 mg/kg/injection, vehicle: saline with Tween-80 114 % of control | dose: 2.5 mg/kg/injection, vehicle: saline with Tween-80 98 % of control | dose: 5.0 mg/kg/injection, vehicle: saline with Tween-80 102 % of control | dose: 10.0 mg/kg/injection, vehicle: saline with Tween-80 93 % of control

O=c1n[n+]([O-])ccn1C1OC(CO)C(O)C1O (stereo not given)
inactive: [1] 117 % of control | [2] 107 % of control | dose: 400.0 mg/kg/injection, vehicle: saline 89 % of control

NC1(C(=O)O)CCCC1
inactive: [3] 102 % of control | [1] 109 % of control and 111 % of control and 120 % of control | [2] 121 % of control

COc1cccc2c1C(=N)c1c(O)c3c(c(O)c1C2=O)C[C@@](O)(C(C)=O)C[C@@H]3OC1CC(N)C(O)C(C)O1 (stereo not given in full)
inactive: dose: 1.0 mg/kg/injection, vehicle: saline 103 % of control | [4] 96 % of control | [5] 105 % of control

[Cl][Pt][Cl].[NH-]C(CO)C(=O)O (stereo not given)
inactive: dose: 6.25 mg/kg/injection, vehicle: water 101 % of control | dose: 12.5 mg/kg/injection, vehicle: water 111 % of control | [6] 105 % of control | [7] 110 % of control

C=CCCC(=O)CCCC(=O)O[C@@H]1[C@@H]2[C@H](CC1(C)C)[C@H](O)[C@@]13O[C@@H]1[C@H](O)[C@@]1(CO1)[C@@]23C
inactive: dose: 3.12 micrograms/kg/injection, vehicle: Klucel (hydroxypropylcellulose) (HPC) 113 % of control | dose: 6.25 micrograms/kg/injection, vehicle: Klucel (hydroxypropylcellulose) (HPC) 98 % of control | dose: 12.5 micrograms/kg/injection, vehicle: Klucel (hydroxypropylcellulose) (HPC) 97 % of control | dose: 25.0 micrograms/kg/injection, vehicle: Klucel (hydroxypropylcellulose) (HPC) 94 % of control | dose: 50.0 micrograms/kg/injection, vehicle: Klucel (hydroxypropylcellulose) (HPC) 110 % of control

Cc1ccc(S(=O)(=O)OCOS(=O)(=O)c2ccc(C)cc2)cc1
inactive: dose: 50.0 mg/kg/injection, vehicle: Klucel (hydroxypropylcellulose) (HPC) 107 % of control | dose: 100.0 mg/kg/injection, vehicle: Klucel (hydroxypropylcellulose) (HPC) 103 % of control | dose: 200.0 mg/kg/injection, vehicle: Klucel (hydroxypropylcellulose) (HPC) 108 % of control | dose: 400.0 mg/kg/injection, vehicle: Klucel (hydroxypropylcellulose) (HPC) 117 % of control

CC(=O)C(=O)O.CC(=O)C(=O)O.[NH-]C1CCCCC1[NH-].[Pt+2] (stereo not given)
inactive: dose: 3.12 mg/kg/injection, vehicle: other 98 % of control | dose: 6.25 mg/kg/injection, vehicle: other 109 % of control | dose: 12.5 mg/kg/injection, vehicle: other 96 % of control

CCO/C=C1\SC(=S)N(c2ccccc2C)C1=O
inactive: [8] 104 % of control | [9] 110 % of control | [10] 98 % of control | dose: 100.0 mg/kg/injection, vehicle: saline with Tween-80 116 % of control | dose: 200.0 mg/kg/injection, vehicle: saline with Tween-80 108 % of control | dose: 400.0 mg/kg/injection, vehicle: saline with Tween-80 89 % of control

CCCCCCCCCCCCCCCCP(=O)(OCCOCCCCCC)OCCOCCCCCC
inactive: dose: 6.25 mg/kg/injection, vehicle: suspension in saline 100 % of control | dose: 12.5 mg/kg/injection, vehicle: suspension in saline 100 % of control | dose: 25.0 mg/kg/injection, vehicle: suspension in saline 107 % of control | dose: 50.0 mg/kg/injection, vehicle: suspension in saline 102 % of control

CC1=NN(c2cccc(S(=O)(=O)O)c2)C(=O)C1N=Nc1cc(Cl)cc(S(=O)(=O)O)c1O.CC1=NN(c2cccc(S(=O)(=O)O)c2)C(=O)C1N=Nc1cc(Cl)cc(S(=O)(=O)O)c1O.[Cr] (stereo not given)
inactive: [3] 92 % of control | [1] 100 % of control | [2] 98 % of control | [11] 98 % of control

N#CC(OC1OC(COC2OC(CO)C(O)C(O)C2O)C(O)C(O)C1O)c1ccccc1 (stereo not given)
inactive: [6] 92 % of control | [7] 97 % of control | dose: 100.0 mg/kg/injection, vehicle: water 98 % of control | dose: 200.0 mg/kg/injection, vehicle: water 98 % of control | dose: 400.0 mg/kg/injection, vehicle: water 98 % of control | dose: 800.0 mg/kg/injection, vehicle: water 98 % of control

Cc1c2cc[n+](CCN3CCCCC3)cc2c(C)c2c1[nH]c1ccc(O)cc12
inactive: dose: 1.56 mg/kg/injection, vehicle: saline 94 % of control | dose: 3.12 mg/kg/injection, vehicle: saline 116 % of control | [12] 106 % of control | [13] 103 % of control | [3] 104 % of control

CC[As](=O)(O)CC
inactive: [1] 95 % of control | [2] 103 % of control | [11] 103 % of control

Cc1c(N)nc(C(CC(N)=O)NCC(N)C(N)=O)nc1C(=O)NC(C(=O)NC(C)C(O)C(C)C(=O)NC(C(=O)NCCc1nc(-c2nc(C(=O)NCCCNCCCc3ccccn3)cs2)cs1)C(C)O)C(OC1OC(CO)C(O)C(O)C1OC1OC(CO)C(O)C(OC(N)=O)C1O)c1cnc[nH]1 (stereo not given)
inactive: [4] 113 % of control | dose: 3.0 mg/kg/injection, vehicle: saline + alcohol 108 % of control | [5] 110 % of control | dose: 6.0 mg/kg/injection, vehicle: saline + alcohol 108 % of control | [12] 122 % of control | dose: 8.0 mg/kg/injection, vehicle: saline 114 % of control | dose: 12.0 mg/kg/injection, vehicle: saline + alcohol 123 % of control | [13] 123 % of control

CCN(CC)CCNc1ccc(C)c2sc3ccc(O)cc3c(=O)c12
inactive: [8] 95 % of control | [9] 105 % of control | [10] 102 % of control
